12 compounds from patent US20180327402A1, “TRIAZOLOPYRIDINE COMPOUNDS AND METHODS OF USE THEREOF” (Genentech, Inc., priority 2015, published 2018) can be followed below.

Assay [1] has as its target T1, isolated recombinant JAK1 kinase domain (Homo sapiens, UniProt P23458).
T1 construct: isolated recombinant JAK1 and JAK2 kinase domain
Description: JAK enzyme assay (Caliper LabChip), JAK1. As to conditions: 1.5 nM JAK1, ATP 25 μM, 22° C., 30 minutes; Morrison tight binding model. The assay is classed as biochemical. The method, then:
(§1) The activity of the isolated recombinant JAK1 and JAK2 kinase domain was measured by monitoring phosphorylation of a peptide derived from JAK3 (Val-Ala-Leu-Val-Asp-Gly-Tyr-Phe-Arg-Leu-Thr-Thr, fluorescently labeled on the N-terminus with 5-carboxyfluorescein) using the Caliper LabChip® technology (Caliper Life Sciences, Hopkinton, Mass.). To determine inhibition constants (Ki), compounds were diluted serially in DMSO and added to 50 μL kinase reactions containing purified enzyme (1.5 nM JAK1, or 0.2 nM JAK2), 100 mM HEPES buffer (pH 7.2), 0.015% Brij-35, 1.5 μM peptide substrate, ATP (25 μM), 10 mM MgCl2, 4 mM DTT at a final DMSO concentration of 2%. Reactions were incubated at 22° C. in 384-well polypropylene microtiter plates for 30 minutes and then stopped by addition of 25 μL of an EDTA containing solution (100 mM HEPES buffer (pH 7.2), 0.015% Brij-35, 150 mM EDTA), resulting in a final EDTA concentration of 50 mM. After termination of the kinase reaction, the proportion of phosphorylated product was determined as a fraction of total peptide substrate using the Caliper LabChip® 3000 according to the manufacturer's specifications. Ki values were then determined using the Morrison tight binding model (Morrison, J. F., Biochim. Biophys. Acta. 185:269-296 (1969); William, J. W. and Morrison, J. F., Meth. Enzymol., 63:437-467 (1979)) modified for ATP-competitive inhibition [Ki ═Ki,app/(1+[ATP]/Km,app)].

For assay [2], the target named is T2, isolated recombinant JAK2 kinase domain (Homo sapiens, UniProt O60674).
T2 construct: isolated recombinant JAK1 and JAK2 kinase domain
T2 sequence (O60674 849-1124 limits assumed): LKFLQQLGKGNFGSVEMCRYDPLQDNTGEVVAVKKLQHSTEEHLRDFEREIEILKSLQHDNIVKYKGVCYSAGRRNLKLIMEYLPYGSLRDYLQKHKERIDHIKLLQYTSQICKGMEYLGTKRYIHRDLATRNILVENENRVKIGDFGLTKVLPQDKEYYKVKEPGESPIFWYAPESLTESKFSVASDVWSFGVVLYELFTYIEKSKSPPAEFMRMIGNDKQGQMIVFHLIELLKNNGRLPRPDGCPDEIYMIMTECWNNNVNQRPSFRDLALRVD
Description: JAK enzyme assay (Caliper LabChip), JAK2. The assay is classed as biochemical. As to conditions: 0.2 nM JAK2, ATP 25 μM, 22° C., 30 minutes; Morrison tight binding model. As to the method:
as §1

T1 sequence (P23458 875-1153 limits assumed): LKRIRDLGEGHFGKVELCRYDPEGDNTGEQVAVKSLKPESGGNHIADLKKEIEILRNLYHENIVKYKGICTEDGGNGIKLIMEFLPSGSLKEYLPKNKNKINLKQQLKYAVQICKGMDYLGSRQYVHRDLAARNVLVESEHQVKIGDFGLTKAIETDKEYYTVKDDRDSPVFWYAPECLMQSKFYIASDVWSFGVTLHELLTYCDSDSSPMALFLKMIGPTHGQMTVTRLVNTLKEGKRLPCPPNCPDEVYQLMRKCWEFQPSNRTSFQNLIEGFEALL

As to `Cn1cc(Nc2nc3c(N4CCC(CCN5CCOCC5)(c5ccc(Cl)cc5)CC4)cccn3n2)cn1` [H, 8-[4-(4-chlorophenyl)-4-(2-morpholinoethyl)-1-piperidyl]-N-(1-methylpyrazol-4-yl)-[1,2,4]triazolo[1,5-a]pyridin-2-amine], the results for the Ki in assay [1] and in assay [2] were 11 nM and 3.5 nM, respectively.

For the compound `CN(C)C(=O)CN1CCC2(CC1)CN(C(=O)N1CC=C(c3cccn4nc(Nc5cnn(C)c5)nc34)CC1)C2` [I, N,N-dimethyl-2-[2-[4-[2-[(1-methylpyrazol-4-yl)amino]-[1,2,4]triazolo[1,5-a]pyridin-8-yl]-3,6-dihydro-2H-pyridine-1-carbonyl]-2,7-diazaspiro[3.5]nonan-7-yl]acetamide], the Ki came to 190 nM in assay [1] and 86 nM in assay [2].

`CSc1ccc(C2(CO)CCN(c3cccn4nc(Nc5cnn(CCN6CCC(N7CCOCC7)CC6)c5)nc34)CC2)cc1` [J, [4-(4-methylsulfanylphenyl)-1-[2-[[1-[2-(4-morpholino-1-piperidyl)ethyl]pyrazol-4-yl]amino]-[1,2,4]triazolo[1,5-a]pyridin-8-yl]-4-piperidyl]methanol]: the Ki in assay [1] is 1.7 nM; in assay [2], 0.47 nM.

Turning to `CSc1ccc(C2(CC#N)CCN(c3cccn4nc(Nc5cnn(CCN6CCC(N7CCOCC7)CC6)c5)nc34)CC2)cc1` [K, 2-[4-(4-methylsulfanylphenyl)-1-[2-[[1-[2-(4-morpholino-1-piperidyl)ethyl]pyrazol-4-yl]amino]-[1,2,4]triazolo[1,5-a]pyridin-8-yl]-4-piperidyl]acetonitrile], the values for the Ki in assay [1] and in assay [2] were 2.7 nM and 1.1 nM, respectively.

Take `CSc1ccc(C2(CC#N)CCN(c3cccn4nc(Nc5cnn(CCN6CCN(C(C)=O)CC6)c5)nc34)CC2)cc1` [L, 2-[1-[2-[[1-[2-(4-acetylpiperazin-1-yl)ethyl]pyrazol-4-yl]amino]-[1,2,4]triazolo[1,5-a]pyridin-8-yl]-4-(4-methylsulfanylphenyl)-4-piperidyl]acetonitrile]: the results for the inhibition constant Ki in assay [1] and in assay [2] were 2.6 nM and 0.65 nM, respectively.

As for `CSc1ccc(C2(CC#N)CCN(c3cccn4nc(Nc5cnn(CCN6CCN(C7CCOCC7)CC6)c5)nc34)CC2)cc1` [M, 2-[4-(4-methylsulfanylphenyl)-1-[2-[[1-[2-(4-tetrahydropyran-4-ylpiperazin-1-yl)ethyl]pyrazol-4-yl]amino]-[1,2,4]triazolo[1,5-a]pyridin-8-yl]-4-piperidyl]acetonitrile], the Ki in assay [1] amounted to 3.3 nM; in assay [2], 0.96 nM.

As to `CSc1ccc(C2(CC#N)CCN(c3cccn4nc(Nc5cnn(CCN(C)C)c5)nc34)CC2)cc1` [N, 2-[1-[2-[[1-[2-(dimethylamino)ethyl]pyrazol-4-yl]amino]-[1,2,4]triazolo[1,5-a]pyridin-8-yl]-4-(4-methylsulfanylphenyl)-4-piperidyl]acetonitrile], the Ki in assay [1] came out at 5.1 nM; in assay [2], 1.2 nM.

Turning to `CSc1ccc(C2(CC#N)CCN(c3cccn4nc(Nc5cnn(CCN6CCN(C)C(=O)C6)c5)nc34)CC2)cc1` [O, 2-[1-[2-[[1-[2-(4-methyl-3-oxo-piperazin-1-yl)ethyl]pyrazol-4-yl]amino]-[1,2,4]triazolo[1,5-a]pyridin-8-yl]-4-(4-methylsulfanylphenyl)-4-piperidyl]acetonitrile], the Ki in assay [1] was 4.6 nM; in assay [2], 1 nM.

In the case of `CSc1ccc(C2(CC#N)CCN(c3cccn4nc(Nc5cnn(CCNC6COC6)c5)nc34)CC2)cc1` [P, 2-[4-(4-methylsulfanylphenyl)-1-[2-[[1-[2-(oxetan-3-ylamino)ethyl]pyrazol-4-yl]amino]-[1,2,4]triazolo[1,5-a]pyridin-8-yl]-4-piperidyl]acetonitrile], the Ki in assay [1] was found to be 2.4 nM; in assay [2] it was 0.72 nM.

For the compound `CSc1ccc(C2(CC#N)CCN(c3cccn4nc(Nc5cnn(CCN6CCN(C(=O)N(C)C)CC6)c5)nc34)CC2)cc1` [Q, 4-[2-[4-[[8-[4-(cyanomethyl)-4-(4-methylsulfanylphenyl)-1-piperidyl]-[1,2,4]triazolo[1,5-a]pyridin-2-yl]amino]pyrazol-1-yl]ethyl]-N,N-dimethyl-piperazine-1-carboxamide], the Ki in assay [1] was 2.9 nM; in assay [2] it was 0.67 nM.

Take `CSc1ccc(C2(CO)CCN(c3cccn4nc(Nc5cnn(CCN)c5)nc34)CC2)cc1` [R, [1-[2-[[1-(2-aminoethyl)pyrazol-4-yl]amino]-[1,2,4]triazolo[1,5-a]pyridin-8-yl]-4-(4-methylsulfanylphenyl)-4-piperidyl]methanol]: the Ki came to 2.9 nM in assay [1] and 1.4 nM in assay [2].

For the compound `CCc1cnn(C2(CC#N)CN(c3cccn4nc(Nc5cnn(Cc6cn(C7CCN(C8COC8)CC7)nn6)c5)nc34)C2)c1` [S, 2-[3-(4-ethylpyrazol-1-yl)-1-[1-[[1-[[1-[1-(oxetan-3-yl)-4-piperidyl]triazol-4-yl]methyl]pyrazol-4-yl]amino]-[1,2,4]triazolo[1,5-a]pyridin-8-yl]azetidin-3-yl]acetonitrile], the Ki in assay [1] worked out at 0.9 nM; in assay [2] it was 0.57 nM.

The term Ki denotes the equilibrium dissociation constant of an inhibitor or competing ligand from its target.
